Columns and labels:
Jurkat cell line = test: PARP cellular chemopotentiation assay (MTS cell viability with and without TMZ); type: cell-based; conditions: ratio of EC50 for inhibition of cell viability without and with 100 μM TMZ; Jurkat cells, 96 hours of treatment
Description: Potentiation Factor (PF50) Determination from PARP Cellular Chemopotentiation Assay
Jurkat cell line was maintained according to the supplier (American Type Culture Collection (Rockville, Md.)). Cells were seeded in 96-well tissue culture microplates at 10,000 cells per well and cultured for 24 hours prior to addition of compounds, TMZ (Temozolomide) or DMSO (dimethylsulfoxide) vehicle. After 96 hours of treatment, the conversion of MTS ([3-(4,5-dimethylthiazol-2-yl)-5-(3-carboxymethoxyphenyl)-2-(4-sulfophenyl)-2H-tetrazolium, inner salt], Promega, Madison, Wis.) by metabolically active cells was determined through measuring the OD490 nm with a Spectramax microplate reader (Molecular Devices, San Diego, Calif.). To generate concentration-response curves, cells were treated in duplicate with a range of serial compound dilutions (final DMSO concentration was 0.5%) in the absence or presence of 100 μM TMZ chemoreagent. The percentage of viable cells per well was calculated by correction for background and normalizing against DMSO-treated cells. EC50 values for inhibition of cell viability were calculated using XLfit4 MicroSoft Excel curve-fitting software. Chemopotentiation factor PF50 was calculated as the ratio of EC50 values of cells co-treated without and with TMZ, respectively.

PARP = biological target: T1, PARP (Homo sapiens, UniProt P09874); test: PARP ELISA colorimetric assay of inhibition of PARP catalytic activity (IC50); type: biochemical; conditions: pIC50=-log(IC50), IC50 in molar concentration; ELISA-based PARP kit, 10 minutes of catalysis
T1 construct: purchased Trevigen 4684-096-01 (enzyme); kit 4684-096-K HT
Description: Inhibition Constant (IC50) from PARP ELISA
Inhibition of PARP catalytic activity was determined by use of an ELISA-based colorimetric PARP/Apoptosis Assay kit (part number 4684-096-K HT, Trevigen). To each histone coated well in the 96-well plate supplied by the manufacturer (part number 4677-096-P) is added 39 μl of PARP buffer (part number 4671-096-02) and 1 μl of test compound dissolved in DMSO (diluted serially 3-fold 11 times). After mixing, 5 μl of 0.1 nM PARP (part number 4684-096-01) is added and the solution allowed to stand at ambient temperature for 10 minutes. PARP catalysis is initiated with the addition of 5 μl of 100 μM β-nicotinamide adenine dinucleotide (NAD+) (part number 4684-096-02) with activated DNA (part number 4671-096-06). After 10 minutes of catalysis the reaction is quenched by solvent aspiration followed by irrigation of the assay wells 4 times with phosphate buffered saline (PBS) containing 0.1% t-Octylphenoxypolyethoxyethanol (Triton® X-100). Mouse Anti-poly ADP ribose (PAR) monoclonal antibody, goat antimouse immunoglobulin G (IgG)-horse radish peroxidase (HRP) conjugate and HRP substrate are added according to the manufacture's specifications to generate a colorimetric signal proportional to PARP catalytic activity. An IC50 for the test compound is calculated from the equation Absorbance=(Amax−background)/(1+([cmpd]/IC50)^n)+background fit to the 12 point test compound concentration gradient via nonlinear least squares.

T1 sequence (P09874 whole entry): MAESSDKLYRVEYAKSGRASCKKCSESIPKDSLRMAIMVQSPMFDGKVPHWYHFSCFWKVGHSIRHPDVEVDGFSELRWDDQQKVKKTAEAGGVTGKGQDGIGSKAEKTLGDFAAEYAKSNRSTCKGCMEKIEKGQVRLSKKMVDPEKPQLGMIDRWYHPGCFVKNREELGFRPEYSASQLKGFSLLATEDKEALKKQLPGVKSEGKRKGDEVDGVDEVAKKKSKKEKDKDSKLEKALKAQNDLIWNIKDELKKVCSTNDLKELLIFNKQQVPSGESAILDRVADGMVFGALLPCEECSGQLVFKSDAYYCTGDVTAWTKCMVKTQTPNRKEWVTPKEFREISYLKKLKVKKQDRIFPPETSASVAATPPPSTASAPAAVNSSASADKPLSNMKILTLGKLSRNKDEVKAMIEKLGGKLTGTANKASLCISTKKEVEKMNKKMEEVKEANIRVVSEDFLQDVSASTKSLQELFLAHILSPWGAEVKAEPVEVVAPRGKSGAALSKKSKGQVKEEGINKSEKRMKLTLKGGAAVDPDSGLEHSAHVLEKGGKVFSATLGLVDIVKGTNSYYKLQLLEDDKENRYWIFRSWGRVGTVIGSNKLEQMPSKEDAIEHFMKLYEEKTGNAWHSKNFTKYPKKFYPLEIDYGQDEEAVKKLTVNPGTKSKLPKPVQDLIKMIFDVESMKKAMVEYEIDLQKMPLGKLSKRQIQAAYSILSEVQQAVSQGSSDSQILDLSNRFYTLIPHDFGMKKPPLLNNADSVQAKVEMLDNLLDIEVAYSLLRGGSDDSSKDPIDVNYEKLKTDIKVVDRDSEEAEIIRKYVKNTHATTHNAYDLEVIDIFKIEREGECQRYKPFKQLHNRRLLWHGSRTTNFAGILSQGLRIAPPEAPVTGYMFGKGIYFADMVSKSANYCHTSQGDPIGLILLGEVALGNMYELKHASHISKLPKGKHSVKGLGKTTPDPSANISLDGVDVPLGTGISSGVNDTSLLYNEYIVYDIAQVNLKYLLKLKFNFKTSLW

| Compound | IC50 (PARP) | PF50 (Jurkat cell line) |
| --- | --- | --- |
| CNC(=O)c1ccc(N2CCN(Cc3cnc4c(c3)NC(=O)[C@@H]3CCCN43)CC2)nc1 [Compound 6, (S)—N-methyl-6-(4-((6-oxo-5,6,6a,7,8,9-hexahydropyrido[3,2-e]pyrrolo[1,2-a]pyrazin-3-yl)methyl)piperazin-1-yl)nicotinamide] | ≤ 12.6 nM | >10 |
| CCNC(=O)c1ccc(N2CCN(Cc3cnc4c(c3)NC(=O)[C@@H]3CCCN43)CC2)cc1F [Compound 125, (S)—N-ethyl-2-fluoro-4-(4-((6-oxo-5,6,6a,7,8,9-hexahydropyrido[3,2-e]pyrrolo[1,2-a]pyrazin-3-yl)methyl)piperazin-1-yl)benzamide] | ≥ 50.1 nM | ≧0 |
| CCNC(=O)c1cc(F)c(N2CCN(Cc3cnc4c(c3)NC(=O)[C@@H]3CCCN43)CC2)cc1F [Compound 124, (S)—N-ethyl-2,5-difluoro-4-(4-((6-oxo-5,6,6a,7,8,9-hexahydropyrido[3,2-e]pyrrolo[1,2-a]pyrazin-3-yl)methyl)piperazin-1-yl)benzamide] | ≥ 50.1 nM | ≧0 |
| CC(C)NC(=O)c1ccc(N2CCN(Cc3cnc4c(c3)NC(=O)[C@@H]3CCCN43)CC2)c(Cl)c1 [Compound 135, (S)-3-chloro-N-isopropyl-4-(4-((6-oxo-5,6,6a,7,8,9-hexahydropyrido[3,2-e]pyrrolo[1,2-a]pyrazin-3-yl)methyl)piperazin-1-yl)benzamide] | 15.8 to 39.8 nM | >5000 |
| CC(C)N1CC(=O)Nc2cc(CN3CCN(c4ccc(Cl)cc4)CC3)cnc21 [Compound 95, 7-((4-(4-chlorophenyl)piperazin-1-yl)methyl)-4-isopropyl-3,4-dihydropyrido[2,3-b]pyrazin-2(1H)-one] | ≥ 50.1 nM | ≧0 |
| CNC(=O)c1ccc(N2CCN(Cc3cnc4c(c3)NC(=O)[C@@H]3CSCCN43)CC2)c(Cl)c1 [Compound 108, (R)-3-chloro-N-methyl-4-(4-((6-oxo-5,6,6a,7,9,10-hexahydropyrido[3,2-e][1,4]thiazino[4,3-a]pyrazin-3-yl)methyl)piperazin-1-yl)benzamide] | ≤ 12.6 nM | >500 |
| Cc1cc(F)ccc1N1CCN(Cc2cnc3c(c2)NC(=O)[C@@H]2CCCN32)CC1 [Compound 130, (S)-3-((4-(4-fluoro-2-methylphenyl)piperazin-1-yl)methyl)-6a,7,8,9-tetrahydropyrido[3,2-e]pyrrolo[1,2-a]pyrazin-6(5H)-one] | 15.8 to 39.8 nM | >2000 |
| CCNC(=O)c1ccc(N2CCN(Cc3cnc4c(c3)NC(=O)[C@@H]3CCCN43)CC2)c(Cl)c1 [Compound 127, (S)-3-chloro-N-ethyl-4-(4-((6-oxo-5,6,6a,7,8,9-hexahydropyrido[3,2-e]pyrrolo[1,2-a]pyrazin-3-yl)methyl)piperazin-1-yl)benzamide] | 15.8 to 39.8 nM | >500 |
| COc1cccc(-c2ccc(N3CCN(Cc4cnc5c(c4)NC(=O)[C@@H]4CCCCN54)CC3)cc2)n1 [Compound 156, (S)-3-((4-(4-(6-methoxypyridin-2-yl)phenyl)piperazin-1-yl)methyl)-7,8,9,10-tetrahydro-5H-dipyrido[1,2-a:3′,2′-e]pyrazin-6(6aH)-one] | ≥ 50.1 nM |  |
| CCOC(=O)c1ccc(N2CCN(Cc3cnc4c(c3)NC(=O)[C@@H]3CCCN43)CC2)nc1 [Compound 121, (S)-ethyl 6-(4-((6-oxo-5,6,6a,7,8,9-hexahydropyrido[3,2-e]pyrrolo[1,2-a]pyrazin-3-yl)methyl)piperazin-1-yl)nicotinate] | 15.8 to 39.8 nM |  |

More lines, main results first:

| IC50 (PARP) | Compound | PF50 (Jurkat cell line) |
| --- | --- | --- |
| 15.8 to 39.8 nM | CNC(=O)c1ccc(N2CCN(Cc3cnc4c(c3)NC(=O)[C@@H]3CCCCN43)CC2)nc1 [Compound 77, (S)—N-methyl-6-(4-((6-oxo-6,6a,7,8,9,10-hexahydro-5H-dipyrido[1,2-a:3′,2′-e]pyrazin-3-yl)methyl)piperazin-1-yl)nicotinamide] | >10 |
| 15.8 to 39.8 nM | CNC(=O)c1ccc(N2CCN(Cc3cnc4c(c3)NC(=O)[C@@H]3CCCCN43)CC2)c(Cl)c1 [Compound 111, (S)-3-chloro-N-methyl-4-(4-((6-oxo-6,6a,7,8,9,10-hexahydro-5H-dipyrido[1,2-a:3′,2′-e]pyrazin-3-yl)methyl)piperazin-1-yl)benzamide] | >5000 |
| ≤ 12.6 nM | COc1cc(C#N)ccc1N1CCN(Cc2cnc3c(c2)NC(=O)[C@@H]2CCCCN32)CC1 [Compound 118, (S)-3-methoxy-4-(4-((6-oxo-6,6a,7,8,9,10-hexahydro-5H-dipyrido[1,2-a:3′,2′-e]pyrazin-3-yl)methyl)piperazin-1-yl)benzonitrile] | >5000 |
| 15.8 to 39.8 nM | O=C(NC1CC1)c1ccc(N2CCN(Cc3cnc4c(c3)NC(=O)[C@@H]3CCCCN43)CC2)c(Cl)c1 [Compound 117, (S)-3-chloro-N-cyclopropyl-4-(4-((6-oxo-6,6a,7,8,9,10-hexahydro-5H-dipyrido[1,2-a:3′,2′-e]pyrazin-3-yl)methyl)piperazin-1-yl)benzamide] | >5000 |
| 15.8 to 39.8 nM | CCNC(=O)c1ccc(N2CCN(Cc3cnc4c(c3)NC(=O)[C@@H]3CCCCN43)CC2)c(F)c1 [Compound 109, (S)—N-ethyl-3-fluoro-4-(4-((6-oxo-6,6a,7,8,9,10-hexahydro-5H-dipyrido[1,2-a:3′,2′-e]pyrazin-3-yl)methyl)piperazin-1-yl)benzamide] | >2000 |
| ≥ 50.1 nM | O=C1Nc2cc(CN3CCC(c4ccc(Cl)cc4)CC3)cnc2N2CCCC[C@@H]12 [Compound 70, (S)-3-((4-(4-chlorophenyl)piperidin-1-yl)methyl)-7,8,9,10-tetrahydro-5H-dipyrido[1,2-a:3′,2′-e]pyrazin-6(6aH)-one] | ≧0 |
| ≥ 50.1 nM | O=C1Nc2cc(CN3CCN(c4ccc(-c5cccs5)cc4)CC3)cnc2N2CCCC[C@@H]12 [Compound 147, (S)-3-((4-(4-(thiophen-2-yl)phenyl)piperazin-1-yl)methyl)-7,8,9,10-tetrahydro-5H-dipyrido[1,2-a:3′,2′-e]pyrazin-6(6aH)-one] |  |
| ≥ 50.1 nM | Cc1cscc1-c1ccc(N2CCN(Cc3cnc4c(c3)NC(=O)[C@@H]3CCCCN43)CC2)cc1 [Compound 161, (S)-3-((4-(4-(4-methylthiophen-3-yl)phenyl)piperazin-1-yl)methyl)-7,8,9,10-tetrahydro-5H-dipyrido[1,2-a:3′,2′-e]pyrazin-6(6aH)-one] |  |
| ≥ 50.1 nM | O=C1Nc2cc(CN3CCN(c4ccc(-c5ccccn5)cc4)CC3)cnc2N2CCCC[C@@H]12 [Compound 157, (S)-3-((4-(4-(pyridin-2-yl)phenyl)piperazin-1-yl)methyl)-7,8,9,10-tetrahydro-5H-dipyrido[1,2-a:3′,2′-e]pyrazin-6(6aH)-one] |  |
| ≥ 50.1 nM | COc1cc(-c2ccc(N3CCN(Cc4cnc5c(c4)NC(=O)[C@@H]4CCCCN54)CC3)cc2)ccn1 [Compound 144, (S)-3-((4-(4-(2-methoxypyridin-4-yl)phenyl)piperazin-1-yl)methyl)-7,8,9,10-tetrahydro-5H-dipyrido[1,2-a:3′,2′-e]pyrazin-6(6aH)-one] |  |
| 15.8 to 39.8 nM | Cc1cc(-c2ccc(N3CCN(Cc4cnc5c(c4)NC(=O)[C@@H]4CCCCN54)CC3)cc2)ccn1 [Compound 167, (S)-3-((4-(4-(2-methylpyridin-4-yl)phenyl)piperazin-1-yl)methyl)-7,8,9,10-tetrahydro-5H-dipyrido[1,2-a:3′,2′-e]pyrazin-6(6aH)-one] |  |
| 15.8 to 39.8 nM | Cn1cc(-c2ccc(N3CCN(Cc4cnc5c(c4)NC(=O)[C@@H]4CCCCN54)CC3)cc2)cn1 [Compound 165, (S)-3-((4-(4-(1-methyl-1H-pyrazol-4-yl)phenyl)piperazin-1-yl)methyl)-7,8,9,10-tetrahydro-5H-dipyrido[1,2-a:3′,2′-e]pyrazin-6(6aH)-one] |  |
| 15.8 to 39.8 nM | Cc1ccnc(-c2ccc(N3CCN(Cc4cnc5c(c4)NC(=O)[C@@H]4CCCCN54)CC3)cc2)c1 [Compound 166, (S)-3-((4-(4-(4-methylpyridin-2-yl)phenyl)piperazin-1-yl)methyl)-7,8,9,10-tetrahydro-5H-dipyrido[1,2-a:3′,2′-e]pyrazin-6(6aH)-one] |  |

— patent US9187497B2, “Substituted pyrido[3,2-e]pyrrolo[1,2-a]pyrazines as inhibitors of poly(ADP-ribose)polymerase (PARP)” (Takeda Phamaceutical Company Limited, priority 2009, dated 2015)
